Values quoted from earlier work in patent US6907319B2, “System for the application of pesticides” (Syngenta Crop Protection, Inc., priority 2000, dated 2005).

Legend:
[1] = increasing the soil temperature
[2] = test system: potato; settings: cool temperatures (13° C. day/4° C. night) compared with 24° C./13° C.

Compound | reduction of the maximum phytotoxicity threshold [1] [fold] | other results
Nc1c(Cl)c(Cl)nc(C(=O)O)c1Cl [picloram] | 1.5 | –
CCNc1nc(Cl)nc(NC(C)C)n1 [atrazine] | 3 | –
COC(=O)c1sccc1S(=O)(=O)NC(=O)Nc1nc(C)nc(OC)n1 [thiameturon-methyl] | – | activity with increasing rain (increasing of rain): reduces the activity; performance with increasing temperature and humidity (increasing temperature and humidity): markedly improved
O=C(O)CNCP(=O)(O)O [glyphosate] | – | phytotoxicity of glyphosate/ha, less than at 24° C./13° C. [2]: 50%
Cc1[nH]c(=O)n(C(C)(C)C)c(=O)c1Cl [terbacil] | 2.5 | –
